Values of other authors in patent publication US7943127B2 (priority 2004, dated 2011).

Conditions: in vivo, iv

Q: Which lethal toxic dose does the source give for COc1cc(CNC(=O)CCCC/C=C/C(C)C)ccc1O [Capsaicin, (E)-N-((4-Hydroxy-3-methoxyphenyl)-methyl)-8-methyl-6-nonenamide] here?
A: about 0.56 mg/kg
